The structures appear in SMILES notation.

One assay addresses T1, cloned human M2 receptor (Homo sapiens, UniProt P08172).
T1 construct: purchased Perkin-Elmer RBHM2M; host or cells: Chinese hamster ovary cells (CHO), membranes
T1 sequence (P08172 1-466): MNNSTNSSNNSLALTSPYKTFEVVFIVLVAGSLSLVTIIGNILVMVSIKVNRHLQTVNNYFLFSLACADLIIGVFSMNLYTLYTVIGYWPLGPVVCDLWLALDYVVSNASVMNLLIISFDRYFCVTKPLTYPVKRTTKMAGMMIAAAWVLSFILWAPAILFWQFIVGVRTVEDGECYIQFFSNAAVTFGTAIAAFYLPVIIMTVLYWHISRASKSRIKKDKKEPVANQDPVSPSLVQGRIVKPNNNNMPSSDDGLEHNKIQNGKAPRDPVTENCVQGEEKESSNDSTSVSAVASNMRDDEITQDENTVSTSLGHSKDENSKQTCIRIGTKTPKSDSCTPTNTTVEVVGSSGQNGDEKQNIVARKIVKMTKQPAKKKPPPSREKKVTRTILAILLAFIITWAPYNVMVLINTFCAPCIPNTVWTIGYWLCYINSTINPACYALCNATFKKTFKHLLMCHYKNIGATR
The experiment in a line: hM2 receptor GTPγS binding. It counts as biochemical. Particulars: CHO membranes expressing hM2, [35S]GTPγS binding. How it is done:
hM2 Receptor GTPγS Binding Membranes produced from Chinese hamster ovary cells (CHO) expressing the cloned human M2 receptor (human Muscarinic receptor subtype 2, gene bank access NM_000739), are obtained from Perkin-Elmer (RBHM2M). The membranes are thawed at 37° C., passed 3 times through a 23-gauge blunt-end needle, diluted in the GTPγS binding buffer (50 mM Hepes, 20 mM NaOH, 100 mM NaCl, 1 mM EDTA, 5 mM MgCl2, pH 7.4, 100 μM DTT). The EC50, IC50 and Emax of the compounds of the invention are evaluated from 10-point dose-response curves (three fold concentration range) done in 60 μl in 384-well non-specific binding surface plate (Corning). Ten microliters from the dose-response curves plate (5× concentration) are transferred to another 384 well plate containing 25 μl of the following: 5 μg of hM2 membranes, 500 μg of Flashblue beads (Perkin-Elmer) and GDP 25 μM. An additional 15 μl containing 3.3× (60,000 dpm) of GTPγ^35S (0.4 nM final) are added to the wells resulting in a total well volume of 50 μl. Basal and maximal stimulated [^35S]GTPγS binding are determined in absence and presence of 30 μM final of acetylcholine agonist. The membranes/beads mix are pre-incubated for 15 minutes at room temperature with 25 μM GDP prior to distribution in plates (12.5 μM final). The reversal of acetylcholine-induced stimulation (2 μM final) of [^35S]GTPγS binding is used to assay the antagonist properties (IC50) of the compounds. The plates are incubated for 60 minutes at room temperature then centrifuged at 400 rpm for 5 minutes. The radioactivity (cpm) is counted in a Trilux (Perkin-Elmer). Values of EC50, IC50 and Emax are obtained using sigmoidal fits of a non-linear curve-fitting program (XLfit version 4.2.2 Excel add-in version 4.2.2 build 18 math 1Q version 2.1.2 build 18) of percent stimulated [^35S]GTPγS binding vs. log(molar ligand). All pEC50 and pIC50 values are reported as arithmetic means±standard error of mean of ‘n’ independent experiments.

The target in another assay is T2, cloned human M4 receptor (Homo sapiens, UniProt P08173).
T2 construct: purchased Perkin-Elmer RBHM4M; host or cells: Chinese hamster ovary cells (CHO), membranes
T2 sequence (P08173 1-479): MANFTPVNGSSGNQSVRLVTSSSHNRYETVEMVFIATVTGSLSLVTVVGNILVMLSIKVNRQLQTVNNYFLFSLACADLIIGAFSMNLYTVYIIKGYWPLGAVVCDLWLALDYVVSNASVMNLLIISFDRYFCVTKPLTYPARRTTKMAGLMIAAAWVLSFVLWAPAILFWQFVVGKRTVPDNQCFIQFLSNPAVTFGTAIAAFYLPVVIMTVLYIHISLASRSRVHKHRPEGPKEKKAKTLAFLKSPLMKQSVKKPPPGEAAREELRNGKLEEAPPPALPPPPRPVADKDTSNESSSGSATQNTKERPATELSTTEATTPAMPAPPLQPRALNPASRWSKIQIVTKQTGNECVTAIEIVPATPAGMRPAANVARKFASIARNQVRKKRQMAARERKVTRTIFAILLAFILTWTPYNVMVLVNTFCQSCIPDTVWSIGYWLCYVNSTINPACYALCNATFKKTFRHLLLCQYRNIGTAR
Nature of the assay: hM4 receptor GTPγS binding. It counts as biochemical. Particulars: CHO membranes expressing hM4, [35S]GTPγS binding. How it is done:
hM4 Receptor GTPγS Binding Membranes produced from Chinese hamster ovary cells (CHO) expressing the cloned human M4 receptor (human Muscarinic receptor subtype 4, gene bank access NM_000741), are obtained from Perkin-Elmer (RBHM4M). The membranes are thawed at 37° C., passed 3 times through a 23-gauge blunt-end needle, diluted in the GTPγS binding buffer (50 mM Hepes, 20 mM NaOH, 100 mM NaCl, 1 mM EDTA, 5 mM MgCl2, pH 7.4, 100 μM DTT). The EC50, IC50 and Emax of the compounds of the invention are evaluated from 10-point dose-response curves (three fold concentration range) done in 60 μl in 384-well non-specific binding surface plate (Corning). Ten microliters from the dose-response curves plate (5× concentration) are transferred to another 384 well plate containing 25 μl of the following: 10 μg of hM4 membranes, 500 μg of Flashblue beads (Perkin-Elmer) and GDP 40 μM. An additional 15 μl containing 3.3× (60,000 dpm) of GTPγ^35S (0.4 nM final) are added to the wells resulting in a total well volume of 50 μl. Basal and maximal stimulated [^35S]GTPγS binding are determined in absence and presence of 30 μM final of acetylcholine agonist. The membranes/beads mix are pre-incubated for 15 minutes at room temperature with 40 μM GDP prior to distribution in plates (20 μM final). The reversal of acetylcholine-induced stimulation (10 μM final) of [^35S]GTPγS binding is used to assay the antagonist properties (IC50) of the compounds. The plates are incubated for 60 minutes at room temperature then centrifuged at 400 rpm for 5 minutes. The radioactivity (cpm) is counted in a Trilux (Perkin-Elmer). Values of EC50, IC50 and Emax are obtained using sigmoidal fits of a non-linear curve-fitting program (XLfit version 4.2.2 Excel add-in version 4.2.2 build 18 math 1Q version 2.1.2 build 18) of percent stimulated [^35S]GTPγS binding vs. log(molar ligand). All pEC50 and pIC50 values are reported as arithmetic means±standard error of mean of ‘n’ independent experiments.
In general terms: GTPγS is a poorly hydrolysed GTP analogue; its binding reports G protein activation.

For orientation: EC50 means the concentration needed to bring the measured effect to its halfway point. A low value points to higher potency in that assay. As to `O=C1CO[C@H]2CCCC[C@@H]2N1C1CCN(C2CCC(COCC3CC3)CC2)CC1` (single isomer, unassigned) [Example 23], the values for the EC50 at cloned human M2 receptor and at cloned human M4 receptor were > 1.2 µM and > 90 µM, respectively.
As to `CCOCC1CC(N2CCC(N3C(=O)CO[C@H]4CCCC[C@@H]43)CC2)C1` (single isomer, unassigned) [Example 39], the figures for the EC50 at cloned human M2 receptor and on cloned human M4 receptor were 5 µM and > 90 µM, respectively.
The like results for `O=C1CO[C@H]2CCCC[C@@H]2N1C1CCN(C2CCC(COCCF)CC2)CC1` (single isomer, unassigned) [Example 24] were, in that order, > 5.7 µM and > 90 µM.
With `CCOCC1CCC(N2CCC(N3C(=O)CO[C@H]4CCCC[C@@H]43)CC2)C1` (single isomer, unassigned) [Example 45], the EC50 on cloned human M2 receptor is 6.1 µM; at cloned human M4 receptor, > 14.7 µM.
The matching figures for `CCOC[C@H]1CC[C@@H](N2CCC(N3C(=O)CO[C@H]4CCCC[C@@H]43)CC2)C1` [Example 42, (4aS,8aS)-4-(1-((1R,3S)-3-(ethoxymethyl)cyclopentyl)piperidin-4-yl)hexahydro-2H-benzo[b][1,4]oxazin-3(4H)-one]: 1.6 µM and 4.24 µM.
With `O=C1CO[C@H]2CCCC[C@@H]2N1C1CCN(C2CCC(COCC3CC3)CC2)CC1` (single isomer, unassigned) [Example 22], the concentration giving a half-maximal response (EC50) on cloned human M2 receptor is 1 µM; on cloned human M4 receptor it was > 90 µM.
The matching figures for `CCCOC1CCC(N2CCC(N3C(=O)NC[C@H]4CCCC[C@@H]43)CC2)CC1` (single isomer, unassigned) [Example 06]: 2.5 µM and > 90 µM.
The matching figures for `O=C1COC2CCCC2N1C1CCN([C@H]2CC[C@@H](COCC3CC3)CC2)CC1` (single isomer, unassigned) [Example 48]: 2.2 µM and > 11.7 µM.
Regarding `CCOC[C@@H]1CC[C@H](N2CCC(N3C(=O)CO[C@H]4CCCC[C@@H]43)CC2)C1` [Example 43, (4aS,8aS)-4-(1-((1S,3R)-3-(ethoxymethyl)cyclopentyl)piperidin-4-yl)hexahydro-2H-benzo[b][1,4]oxazin-3(4H)-one], the values for the concentration for a half-maximal effect (EC50) on cloned human M2 receptor and at cloned human M4 receptor were > 3.9 µM and > 28.1 µM, respectively.
The like results for `O=C1CO[C@H]2CCCC[C@@H]2N1C1CCN(C2CCC(COCC(F)F)CC2)CC1` (single isomer, unassigned) [Example 27] were, in that order, 0.87 µM and > 90 µM.
In the case of `CC(C)OCC1CCC(N2CCC(N3C(=O)CO[C@H]4CCC(F)(F)C[C@@H]43)CC2)CC1` (single isomer, unassigned) [Example 37], the values for the EC50 on cloned human M2 receptor and at cloned human M4 receptor were > 13 µM and > 90 µM, respectively.
The like results for `CCCOCC1CCC(N2CCC(N3C(=O)NC[C@H]4CCCC[C@@H]43)CC2)CC1` (single isomer, unassigned) [Example 02] were, in that order, 0.24 µM and 0.521 µM.
For the compound `CC(C)OCC1CCC(N2CCC(N3C(=O)CO[C@H]4CCCC[C@@H]43)CC2)CC1` (mixture of isomers) [Example 15, (4aS,8aS)-4-(1-(4-(isopropoxymethyl)cyclohexyl)piperidin-4-yl)hexahydro-2H-benzo[b][1,4]oxazin-3(4H)-one], the concentration giving a half-maximal response (EC50) at cloned human M2 receptor was 3.5 µM; at cloned human M4 receptor, > 33.5 µM.
Turning to `CC(C)OCC1CCC(N2CCC(N3C(=O)NC[C@H]4CCCC[C@@H]43)CC2)CC1` (single isomer, unassigned) [Example 04], the EC50 stood at 0.66 µM at cloned human M2 receptor and 0.683 µM on cloned human M4 receptor.
The matching figures for `CCOCC1CCC(N2CCC(N3C(=O)CO[C@H]4CCCC[C@@H]43)CC2)CC1` (single isomer, unassigned) [Example 13]: > 21 µM and > 23.4 µM.
For `CC(C)OCC1CCC(N2CCC(N3C(=O)CO[C@H]4CCCC[C@@H]43)CC2)CC1` (single isomer, unassigned) [Example 19], the values for the 50% effective concentration (EC50) on cloned human M2 receptor and on cloned human M4 receptor were 8.7 µM and > 43.4 µM, respectively.
The matching figures for `CCCOCC1CCC(N2CCC(N3C(=O)NC[C@H]4CCCC[C@@H]43)CC2)CC1` (single isomer, unassigned) [Example 01]: 7.7 µM and > 51.9 µM.
Consider `CCCOC1CCC(N2CCC(N3C(=O)CO[C@H]4CCCC[C@@H]43)CC2)CC1` (single isomer, unassigned) [Example 17], for which the EC50 is > 48 µM on cloned human M2 receptor and > 90 µM on cloned human M4 receptor.
The matching figures for `CCOCC1CCC(N2CCC(N3C(=O)CO[C@H]4CCCC[C@@H]43)CC2)CC1` (single isomer, unassigned) [Example 14]: 2.8 µM and 4.84 µM.
The matching figures for `O=C1NC[C@H]2CCCC[C@@H]2N1C1CCN(C2CCC(COCC(F)F)CC2)CC1` (single isomer, unassigned) [Example 51]: 3 µM and > 90 µM.
The like results for `O=C1CO[C@H]2CCCC[C@@H]2N1C1CCN(C2CCC(COCCF)CC2)CC1` (single isomer, unassigned) [Example 25] were, in that order, > 2.7 µM and > 26.5 µM.
Consider `CC(C)OCC1CCC(N2CCC(N3C(=O)CO[C@H]4CCCC[C@@H]43)CC2)CC1` (single isomer, unassigned) [Example 18], for which the EC50 at cloned human M2 receptor is 3.5 µM; at cloned human M4 receptor it was > 24.9 µM.
Turning to `CC(C)OCC1CCC(N2CCC(N3C(=O)CO[C@H]4CCC(F)(F)C[C@@H]43)CC2)CC1` (single isomer, unassigned) [Example 38], the EC50 on cloned human M2 receptor was > 10 µM; at cloned human M4 receptor, > 90 µM.
The like results for `O=C1CO[C@H]2CCCC[C@@H]2N1C1CCN(C2CC(COCC3CCC3)C2)CC1` (single isomer, unassigned) [Example 40] were, in that order, 4.4 µM and > 90 µM.

The record behind these values is US20090275574A1, “NOVEL COMPOUNDS-300” (ASTRAZENECA AB, priority 2008, published 2009).
